Reference: US20190124924A1, “FUNGAL CONTROL OF WHITE MOLD” (DOW AGROSCIENCES LLC, priority 2015, published 2019)

Tests used:
Sclerotinia sclerotiorum [1] = test: Inhibition of mycelial growth by fungicides in Petri dishes (growth medium + fungicide); type: cell-based; settings: for inhibition at 0.1 ppm / inhibition at 1 ppm / inhibition at 10 ppm / inhibition at 100 ppm: Sclerotinia sclerotiorum, 192 h, read-out: Percent (%) Inhibition of Mycelial Growth of Sclerotinia sclerotiorum
Description: Evaluation of Inhibition of Mycelial Growth by Fungicides (Sclerotinia sclerotiorum; Bayer code: […]): The growth inhibition of the fungus (Sclerotinia sclerotiorum) was assessed in Petri dishes containing the growth medium+fungicide at different concentrations. […] The number of sclerotia were counted. A completely randomized design with three replicates was used. Treatments consisted of fungicide compounds including Formula I, fluazinam, thiophanate-methyl, and procymidone.

Sclerotinia sclerotiorum [2] = test: Inhibition of Sclerotinia sclerotiorum on detached soybean leaves; type: in vivo; settings: read-out: Percent (%) Inhibition of Sclerotinia sclerotiorum on Detached Soybean Leaves
Description: Evaluation of Inhibition of Sclerotinia sclerotiorum on Detached Soybean Leaves: Detached leaves of soybean were immersed for 3 seconds (s) in fungicide solutions at different concentrations and placed in Petri dishes. […] Symptoms were assessed for percent disease severity. Three leaves per plate with three replicates in a completely randomized design. Treatments consisted of fungicide compounds including Formula I, fluazinam, thiophanate-methyl, and procymidone.

Sclerotinia sclerotiorum [3] = test: Field trials in oilseed rape, incidence of white mold and yield; type: in vivo; settings: single application; for Yield of Oilseed Rape: untreated 4.08; for Percent (%) Incidence of Sclerotinia sclerotiorum at B65-B67 Growth Stage in Oilseed Rape: untreated 55
Sclerotinia sclerotiorum [4] = test: Field trial in dry bean, incidence of white mold; type: in vivo; settings: two applications R5 and R6, untreated 12.5
Description: A field trial in dry bean was carried out in the state of Sao Paulo, Brazil. Two applications of the fungicides were done at growth stages R5 (first bloom) and R6 (full bloom) by using a carbon dioxide (CO2) backpack sprayer at an application rate of 600 liters per hectare (Uha). […] Treatments consisted of fungicide compounds including Formula I, fluazinam, thiophanate-methyl, and procymidone.

Q: Which “Number of Sclerotinia Formed per Colony” value (Sclerotinia sclerotiorum [1]; 0.1 ppm) does the source give for `COC(=O)NC(=S)Nc1ccccc1NC(=S)NC(=O)OC` [Thiophanate-Methyl, thiophanate-methyl] here?
A: 19.25

Q: What about the “Number of Sclerotinia Formed per Colony” value (Sclerotinia sclerotiorum [1]; 1 ppm) of the same compound?
A: 17.56

Q: And the “Number of Sclerotinia Formed per Colony” value (Sclerotinia sclerotiorum [1]; 10 ppm)?
A: 0

Q: And the “Number of Sclerotinia Formed per Colony” value (Sclerotinia sclerotiorum [1]; 100 ppm)?
A: 0

Q: And the inhibition at 0.1 ppm (Sclerotinia sclerotiorum [1]; 0.1 ppm, 22° C., 8 days)?
A: 0%

Q: What about the inhibition at 1 ppm (Sclerotinia sclerotiorum [1]; 1 ppm, 22° C., 8 days) of the same compound?
A: 32.2%

Q: And the inhibition at 10 ppm (Sclerotinia sclerotiorum [1]; 10 ppm, 22° C., 8 days)?
A: 78.3%

Q: And the inhibition at 100 ppm (Sclerotinia sclerotiorum [1]; 100 ppm, 22° C., 8 days)?
A: 100%

Q: And the inhibition at 0.1 ppm (Sclerotinia sclerotiorum [2]; 0.1 ppm, leaves immersed 3 s)?
A: 20.7%

Q: And the inhibition at 1 ppm (Sclerotinia sclerotiorum [2]; 1 ppm, leaves immersed 3 s)?
A: 43.1%

Q: And the inhibition at 10 ppm (Sclerotinia sclerotiorum [2]; 10 ppm, leaves immersed 3 s)?
A: 87.4%

Q: What about the inhibition at 100 ppm (Sclerotinia sclerotiorum [2]; 100 ppm, leaves immersed 3 s) of the same compound?
A: 100%

Q: Which “Number of Sclerotinia Formed per Colony” value (Sclerotinia sclerotiorum [1]; 0.1 ppm) does the source give for `CC12CC1(C)C(=O)N(c1cc(Cl)cc(Cl)c1)C2=O` (centres unmarked) [Procymidone, procymidone] here?
A: 18.67

Q: What about the “Number of Sclerotinia Formed per Colony” value (Sclerotinia sclerotiorum [1]; 1 ppm) of the same compound?
A: 16.2

Q: And the “Number of Sclerotinia Formed per Colony” value (Sclerotinia sclerotiorum [1]; 10 ppm)?
A: 1.67

Q: What about the “Number of Sclerotinia Formed per Colony” value (Sclerotinia sclerotiorum [1]; 100 ppm) of the same compound?
A: 0

Q: And the inhibition at 0.1 ppm (Sclerotinia sclerotiorum [1]; 0.1 ppm, 22° C., 8 days)?
A: 10%

Q: What about the inhibition at 1 ppm (Sclerotinia sclerotiorum [1]; 1 ppm, 22° C., 8 days) of the same compound?
A: 24.5%

Q: And the inhibition at 10 ppm (Sclerotinia sclerotiorum [1]; 10 ppm, 22° C., 8 days)?
A: 68.2%

Q: And the inhibition at 100 ppm (Sclerotinia sclerotiorum [1]; 100 ppm, 22° C., 8 days)?
A: 100%

Q: What about the inhibition at 0.1 ppm (Sclerotinia sclerotiorum [2]; 0.1 ppm, leaves immersed 3 s) of the same compound?
A: 19.5%

Q: And the inhibition at 1 ppm (Sclerotinia sclerotiorum [2]; 1 ppm, leaves immersed 3 s)?
A: 59.8%

Q: What about the inhibition at 10 ppm (Sclerotinia sclerotiorum [2]; 10 ppm, leaves immersed 3 s) of the same compound?
A: 85.1%

Q: And the inhibition at 100 ppm (Sclerotinia sclerotiorum [2]; 100 ppm, leaves immersed 3 s)?
A: 100%

Q: Which results are given for `OC(Cc1ccccc1Cl)(Cn1nc[nH]c1=S)C1(Cl)CC1` (racemic) [Prothioconazole, 2-[(2RS)-2-(1-chlorocyclopropyl)-3-(2-chlorophenyl)-2-hydroxypropyl]-2H-1,2,4-triazole-3(4H)-thione]?
A: Yield of Oilseed Rape (Sclerotinia sclerotiorum [3]; 150 g ai/ha): 4.4 T/ha; Percent (%) Incidence of Sclerotinia sclerotiorum at B65-B67 Growth Stage in Oilseed Rape (Sclerotinia sclerotiorum [3]; 150 g ai/ha): 31%; Yield of Oilseed Rape (Sclerotinia sclerotiorum [3]; 173 g ai/ha): 4.49 T/ha; Percent (%) Incidence of Sclerotinia sclerotiorum at B65-B67 Growth Stage in Oilseed Rape (Sclerotinia sclerotiorum [3]; 173 g ai/ha): 20%

Q: For `O=C(Nc1ccccc1-c1ccc(Cl)cc1)c1cccnc1Cl` [Boscalid, boscalid], which “Yield of Oilseed Rape” value (Sclerotinia sclerotiorum [3]; 250 g ai/ha) is on record?
A: 4.34 T/ha

Q: What about the “Percent (%) Incidence of Sclerotinia sclerotiorum at B65-B67 Growth Stage in Oilseed Rape” value (“Percent (%) Incidence … in Oilseed Rape” below) (Sclerotinia sclerotiorum [3]; 250 g ai/ha) of the same compound?
A: 4%

Q: `O=[N+]([O-])c1cc(C(F)(F)F)c(Cl)c([N+](=O)[O-])c1Nc1ncc(C(F)(F)F)cc1Cl` [Fluazinam, fluazinam] was tested. Which “Number of Sclerotinia Formed per Colony” value (Sclerotinia sclerotiorum [1]; 0.1 ppm) did it give?
A: 5.7

Q: What about the “Number of Sclerotinia Formed per Colony” value (Sclerotinia sclerotiorum [1]; 1 ppm) of the same compound?
A: 4.3

Q: And the “Number of Sclerotinia Formed per Colony” value (Sclerotinia sclerotiorum [1]; 10 ppm)?
A: 0

Q: And the “Number of Sclerotinia Formed per Colony” value (Sclerotinia sclerotiorum [1]; 100 ppm)?
A: 0

Q: And the inhibition at 0.1 ppm (Sclerotinia sclerotiorum [1]; 0.1 ppm, 22° C., 8 days)?
A: 59.7%

Q: What about the inhibition at 1 ppm (Sclerotinia sclerotiorum [1]; 1 ppm, 22° C., 8 days) of the same compound?
A: 71.6%

Q: What about the inhibition at 10 ppm (Sclerotinia sclerotiorum [1]; 10 ppm, 22° C., 8 days) of the same compound?
A: 82.6%

Q: And the inhibition at 100 ppm (Sclerotinia sclerotiorum [1]; 100 ppm, 22° C., 8 days)?
A: 100%

Q: What about the inhibition at 0.1 ppm (Sclerotinia sclerotiorum [2]; 0.1 ppm, leaves immersed 3 s) of the same compound?
A: 25.9%

Q: And the inhibition at 1 ppm (Sclerotinia sclerotiorum [2]; 1 ppm, leaves immersed 3 s)?
A: 53.5%

Q: What about the inhibition at 10 ppm (Sclerotinia sclerotiorum [2]; 10 ppm, leaves immersed 3 s) of the same compound?
A: 66.1%

Q: What about the inhibition at 100 ppm (Sclerotinia sclerotiorum [2]; 100 ppm, leaves immersed 3 s) of the same compound?
A: 100%

Q: And the “Percent (%) Incidence of Sclerotinia sclerotiorum at R7 Growth Stage on Dry Bean” value (“Percent (%) Incidence … on Dry Bean” for short) (Sclerotinia sclerotiorum [4]; 500 g ai/ha)?
A: 0.8%

Q: Which “Number of Sclerotinia Formed per Colony” value (Sclerotinia sclerotiorum [1]; 0.1 ppm) does the source give for `COc1ccnc(C(=O)N[C@H]2COC(=O)[C@H](Cc3ccccc3)[C@@H](OC(=O)C(C)C)[C@H](C)OC2=O)c1OCOC(=O)C(C)C` [Compound I, (3S,6S,7R,8R)-8-benzyl-3-(3-((isobutyryloxy)methoxy)-4-methoxypicolinamido)-6-methyl-4,9-dioxo-1,5-dioxonan-7-yl isobutyrate] here?
A: 3.33

Q: And the “Number of Sclerotinia Formed per Colony” value (Sclerotinia sclerotiorum [1]; 1 ppm)?
A: 2.33

Q: And the “Number of Sclerotinia Formed per Colony” value (Sclerotinia sclerotiorum [1]; 10 ppm)?
A: 1.67

Q: What about the “Number of Sclerotinia Formed per Colony” value (Sclerotinia sclerotiorum [1]; 100 ppm) of the same compound?
A: 1.33

Q: What about the inhibition at 0.1 ppm (Sclerotinia sclerotiorum [1]) of the same compound?
A: 28.3%

Q: What about the inhibition at 1 ppm (Sclerotinia sclerotiorum [1]) of the same compound?
A: 72.4%

Q: What about the inhibition at 10 ppm (Sclerotinia sclerotiorum [1]) of the same compound?
A: 80.7%

Q: And the inhibition at 100 ppm (Sclerotinia sclerotiorum [1])?
A: 91%

Q: And the inhibition at 0.1 ppm (Sclerotinia sclerotiorum [2])?
A: 8.63%

Q: What about the inhibition at 1 ppm (Sclerotinia sclerotiorum [2]) of the same compound?
A: 66.1%

Q: And the inhibition at 10 ppm (Sclerotinia sclerotiorum [2])?
A: 92.5%

Q: What about the inhibition at 100 ppm (Sclerotinia sclerotiorum [2]) of the same compound?
A: 100%

Q: And the “Percent (%) Incidence … on Dry Bean” value (Sclerotinia sclerotiorum [4]; 120 g ai/ha)?
A: 3.5%

Q: What about the “Percent (%) Incidence … on Dry Bean” value (Sclerotinia sclerotiorum [4]; 240 g ai/ha) of the same compound?
A: 1%

Q: And the “Yield of Oilseed Rape” value (Sclerotinia sclerotiorum [3]; 100 g ai/ha)?
A: 4.22 T/ha

Q: What about the “Percent (%) Incidence … in Oilseed Rape” value (Sclerotinia sclerotiorum [3]; 100 g ai/ha) of the same compound?
A: 24%

Q: What about the “Yield of Oilseed Rape” value (Sclerotinia sclerotiorum [3]; 130 g ai/ha) of the same compound?
A: 4.29 T/ha

Q: What about the “Percent (%) Incidence … in Oilseed Rape” value (Sclerotinia sclerotiorum [3]; 130 g ai/ha) of the same compound?
A: 24%

Q: What about the “Yield of Oilseed Rape” value (Sclerotinia sclerotiorum [3]; 150 g ai/ha) of the same compound?
A: 4.23 T/ha

Q: What about the “Percent (%) Incidence … in Oilseed Rape” value (Sclerotinia sclerotiorum [3]; 150 g ai/ha) of the same compound?
A: 19%

Q: And the “Yield of Oilseed Rape” value (Sclerotinia sclerotiorum [3]; 200 g ai/ha)?
A: 4.48 T/ha

Q: What about the “Percent (%) Incidence … in Oilseed Rape” value (Sclerotinia sclerotiorum [3]; 200 g ai/ha) of the same compound?
A: 14%
